# Laboratory results published in US20100130436A1, “CO-ADMINISTRATION OF RANOLAZINE AND CARDIAC GLYCOSIDES” (priority 2008, published 2010).
# Values joined by “and” are separate entries in the source; they are usually repeats but may differ in a detail not shown here. Equal entries are not always repeated. Where two headings read alike, the source gives them in different places.
# Assays:
# [1] = system: late sodium current (late INa); experiment: Whole-cell patch-clamp of late INa in isolated ventricular myocytes; assay type: cell-based, guinea pig; conditions: for effect of ouabain (1 μmol/L) to increase late INa: FIG. 10, intracellular KN-93 10 μmol/L, EGTA 1 mmol/L, KN-92 10 μmol/L; for increase of late INa at the end of a 10-min exposure to ouabain / late INa at the end of a 10-min exposure to ouabain: ouabain 1 μmol/L
# [2] = system: [Na+]i of guinea pig isolated heart; experiment: 23Na-NMR spectroscopy of intracellular sodium concentration in isolated heart
# [3] = system: guinea pig isolated, perfused heart; conditions: for developed pressure: FIG. 7
# [4] = system: isolated guinea pig papillary muscles
# [5] = system: guinea pig isolated, perfused heart; experiment: 31P-NMR spectroscopy of energy-related phosphates and pHi in isolated heart
# Na+, K+-ATPase = experiment: Na+,K+-ATPase activity assay by 86Rb+ uptake of A7r5 cells; assay type: cell-based; conditions: for 86Rb+ uptake: control = activity in presence of ouabain
# Text: The activity of Na^+, K^+-ATPase was inhibited 77% by 1 mmol/L ouabain in the absence (control) of ranolazine. Values of ^86Rb^+ uptake were 91±11, 98±2.5, and 93±8.3% of control (activity in presence of ouabain) in the presence of 3, 10, and 30 μmol/L ranolazine, respectively.
# cat papillary muscles = conditions: 1.37 μmol/L ouabain, Lee et al. 1960; cited from earlier work
# cardiac tissues = conditions: Heers et al. 1991; Damiano et al. 1991; cited from earlier work
# [6] = agent 10 μmol/L intracellular via patch pipette
# [7] = 0.75 μmol/L ouabain for 60 min, n=5
# [8] = Example 1, ouabain-alone treated hearts
# [9] = after ouabain treatment (discussion)
# [10] = FIG. 1, after ouabain without ranolazine
# [11] = 0.75 μmol/L ouabain in the presence of 10 μmol/L ranolazine
# [12] = 0.75 μmol/L ouabain in the presence of 10 μmol/L ranolazine, 60 min
compound,measurement,setting,value
COc1ccc(S(=O)(=O)Nc2ccccc2CN(C)C/C=C/c2ccc(Cl)cc2)cc1 [KN-92],effect of ouabain (1 μmol/L) to increase late INa,[1],not
same,increase of late INa at the end of a 10-min exposure to ouabain,[1]; [6],273±39%
same,late INa at the end of a 10-min exposure to ouabain,[1]; [6],72±7 pC/pF
"NC1=N[C@H](O)[C@H]2[C@H]3O[C@]4(O)O[C@@H]([C@@H](O)[C@@]2(N1)[C@@H]4O)[C@]3(O)CO [TTX, tetrodotoxin]",[Na+]i,[2],did not significantly change
same,[Na+]i plateau concentration,[2],10.5 ± 0.3 mmol/L
same,decrease in the ouabain-induced rise of [Na+]i,[2],concentration-dependent
same,effect of 1 μmol/L ouabain to increase late INa,[1],partially reversed
same,late INa,[1],21.2±7.9 pC/pF
same,ouabain-induced late current,[1],completely inhibited
same,LVSP decrease,[3],9% and 18.2%
same,effect of ouabain to cause contractile dysfunction,[3],attenuated
same,episodes of cardiac standstill and changes in LVEDP,[3],neither episodes of cardiac standstill nor changes in LVEDP were observed
same,maximum value of RPP,[3],"35,569±1,850 mmHg/min and 39,182±2,216 mmHg/min"
same,occurrence of episodes of cardiac standstill caused by ouabain,[3],reduced
same,positive inotropic effect of ouabain throughout the 60-min exposure,[3],sustained
same,recovery of contractile function after drug washout,[3],better recovery
same,responses of hearts exposed to ouabain,[3],comparable to those exposed to ouabain in the presence of 3 union ranolazine
same,increase of diastolic tension during ouabain treatment,[4],attenuated
O=C(O)CN(CCOCCOCCN(CC(=O)O)CC(=O)O)CC(=O)O [EGTA],effect of ouabain (1 μmol/L) to increase late INa,[1],attenuated
same,late INa at the end of a 10-min exposure to ouabain,"[1]; EGTA 1 mmol/L in patch pipette, from 23±3, n=6",31±8 pC/pF
same,increase of late INa at the end of a 10-min exposure to ouabain,"[1]; EGTA 1 mmol/L in patch pipette, n=6",33±28%
COc1ccc(S(=O)(=O)N(CCO)c2ccccc2CN(C)C/C=C/c2ccc(Cl)cc2)cc1 [KN-93],effect of ouabain (1 μmol/L) to increase late INa,[1],attenuated
same,increase of late INa at the end of a 10-min exposure to ouabain,[1]; [6],76±35%
same,late INa at the end of a 10-min exposure to ouabain,[1]; [6],33±6 pC/pF
C[C@@H]1O[C@@H](O[C@H]2C[C@@H](O)[C@]3(CO)[C@H]4[C@H](O)C[C@]5(C)[C@@H](C6=CC(=O)OC6)CC[C@]5(O)[C@@H]4CC[C@]3(O)C2)[C@H](O)[C@H](O)[C@H]1O [ouabain],[Na+]i,"[2]; 0.75 μmol/L ouabain for 40 min, absence of ranolazine, n=4",14.9 ± 0.9 mmol/L
same,[Na+]i,"[2]; 0.75 μmol/L ouabain for 76 min, absence of ranolazine, n=4",18.1 ± 0.9 mmol/L
same,[Na+]i plateau level,"[2]; 1.3 μmol/L ouabain alone, n=6",22.9 ± 0.7 mmol/L
same,increase of [Na+]i,"[2]; 1.3 μmol/L ouabain, at 60 min",3.3 -fold
same,[Na+]i after washout of ouabain for 20 min,"[2]; after 1.3 μmol/L ouabain, n=5",10.3 ± 1.8 mmol/L
same,[ATP] decline,[5]; [7],55±6%
same,[PCr] decline,[5]; [7],56±7%
same,[Pi] increase,[5]; [7],3.7±0.9 -fold
same,[Pi] before washout,"[5]; 0.75 μmol/L ouabain for 60 min, control 2.9±0.2",9.1 ± 0.5 mmol/L
same,pHi,"[5]; 0.75 μmol/L ouabain for 60 min, control 7.15±0.01",7.07±0.01
same,decrease of |ΔG~ATP|,"[5]; 0.75 μmol/L ouabain for 60 min, control 59.2 kJ/mol",1.72 ± 0.287 kcal/mol
same,ATP content reduced by,[5]; [8],64%
same,intracellular inorganic phosphate (Pi) increase,[5]; [8],4.8 fold
same,phosphocreatine (PCr) content reduced by,[5]; [8],59%
same,pH,"[5]; Example 1, ouabain-alone treated hearts, baseline 7.14",7.07
same,[Pi] after 20-min washout,[5]; after 0.75 μmol/L ouabain,5.8 ± 0.4 mmol/L
same,pHi after 20-min washout,[5]; after 0.75 μmol/L ouabain,7.15
same,loss of [ATP] and [PCr],[5]; [9],over 50%
same,reduction of the value of |ΔG~ATP|,[5]; [9],1.7 kcal/mol
same,"activity of Na+, K+-ATPase inhibited","Na+, K+-ATPase; 1 mmol/L ouabain, absence of ranolazine",77%
same,integrated late INa,"[1]; 3 to 5-min exposure to ouabain 1 μmol/L, from 23.5±4.9, n=8",99.6±15.2 pC/pF
same,late INa,"[1]; ouabain alone 1 μmol/L, 5-10 min, from 21±2, n=6",84±12 pC/pF
same,increase of late INa,"[1]; ouabain alone 1 μmol/L, 5-10 min, n=6",318±74%
same,hearts with episodes of cardiac standstill,"[3]; 0.75 μmol/L ouabain for 60 min, alone",11 out of 13
same,LVSP,"[3]; 0.75 μmol/L ouabain, from 96±2 mmHg, n=13",148±6 mmHg
same,RPP,"[3]; 0.75 μmol/L ouabain, from 26,497±664 mmHg/min, n=13","40,676±1159 mmHg/min"
same,increase of LVSP,"[3]; 0.75 μmol/L ouabain, n=13",55±5%
same,increase of RPP,"[3]; 0.75 μmol/L ouabain, n=13",59±6%
same,diastolic function (pressure) during 20 min wash out,[3]; [10],34 mmHg
same,systolic pressure during 20 min wash out,[3]; [10],70 mmHg
same,"Left ventricular systolic pressure, maximum upon infusion with ouabain","[3]; FIG. 1 representative tracing, ouabain without ranolazine, baseline 101 mmHg",140 mmHg
same,EDP during toxic effect of ouabain,"[3]; FIG. 1 representative tracing, ouabain without ranolazine, increase from 8 mmHg",45 mmHg
same,developed pressure,[3]; ouabain-only treated hearts,significantly decreased
same,LVDevP at the end of washout,"[3]; ouabain alone, control 89.1±1.0 mmHg",36.4±5.9 mmHg
same,reduction of [ATP],cat papillary muscles,42%
same,reduction of [PCr],cat papillary muscles,66%
COc1ccccc1OCC(O)CN1CCN(CC(=O)Nc2c(C)cccc2C)CC1 (stereo not shown) [ranolazine],[Na+]i plateau concentration,"[2]; 1.3 μmol/L ouabain in the presence of 10 μmol/L ranolazine, n=8",15.4 ± 0.45 mmol/L
same,[Na+]i,"[2]; 10 μmol/L ranolazine for up to 30 min or 1 μmol/L TTX for 10 min, no ouabain",did not significantly change
same,ouabain-induced increase in [Na+]i,"[2]; 3 or 10 μmol/L ranolazine given after 40 min of 0.75 μmol/L ouabain alone, pooled n=6, FIG. 8C",partially reversed
same,cardiac [Na+]i during normal perfusion,"[2]; Example 1, RAN 10 μM",did not change
same,[Na+]i accumulation during ouabain treatment,"[2]; Example 1, RAN 10 μM, P<0.01",reduced
same,decrease in the ouabain-induced rise of [Na+]i,"[2]; FIG. 8E, Ran 3 and 10, TTX 0.5 and 1 μmol/L",concentration-dependent
same,[Na+]i,"[2]; ranolazine 10 μmol/L for 30 min, no ouabain, n=5, control 6.9±0.6",6.5 ± 0.4 mmol/L
same,level of [Na+]i in hearts previously exposed to ouabain alone for 40 min,"[2]; ranolazine 10 μmol/L, 30 min, FIG. 8C",did not significantly reduce
same,[Pi] increase,[5]; [11],1.3±0.1 times
same,fall in pHi,[5]; [11],not significant
same,[ATP],[5]; [12],did not change significantly
same,[PCr] decrease from baseline,[5]; [12],19±5%
same,[Pi] increase,"[5]; Example 1, RAN + ouabain",14%
same,pH,"[5]; Example 1, RAN + ouabain",remained constant
same,ATP and PCr decrease,"[5]; Example 1, RAN pretreatment, after 60 min of ouabain treatment",20%
same,decrease of |ΔG~ATP|,[5]; ouabain in the presence of 10 μmol/L ranolazine,0.454 ± 0.14 kcal/mol
same,concentrations of phosphates or pHi,[5]; ranolazine alone for 10 min,did not alter
same,86Rb+ uptake,"Na+, K+-ATPase; 3 μmol/L ranolazine",91±11 % of control
same,86Rb+ uptake,"Na+, K+-ATPase; 10 μmol/L ranolazine",98±2.5 % of control
same,86Rb+ uptake,"Na+, K+-ATPase; 30 μmol/L ranolazine",93±8.3 % of control
same,effect on sodium pump activity,"Na+, K+-ATPase; 3, 10, 30 μmol/L ranolazine",no measurable effect
same,effect of 1 μmol/L ouabain to increase late INa,"[1]; FIG. 9, ranolazine 10 μmol/L or TTX 3 μmol/L",partially reversed
same,reduction of late INa,"[1]; ranolazine 10 μmol/L in the continuous presence of ouabain 1 μmol/L, n=8",69±9%
same,late INa,"[1]; ranolazine 10 μmol/L in the continuous presence of ouabain, from 99.6±15.2, n=8",50.6±13.6 pC/pF
same,effect of ouabain to cause contractile dysfunction,[3],attenuated
same,"mechanical dysfunction (increase in end diastolic pressure, episodes of cardiac standstill)",[3],not observed
same,occurrence of episodes of cardiac standstill caused by ouabain,[3],reduced
same,maximum value of RPP,"[3]; 0.75 μmol/L ouabain + 3 μmol/L ranolazine, n=8","40,033±1,477 mmHg/min"
same,positive inotropic response to ouabain during the 60-min exposure,[3]; 0.75 μmol/L ouabain + 5 μmol/L ranolazine,not sustained at a maximal level
same,maximum value of RPP,"[3]; 0.75 μmol/L ouabain + 5 μmol/L ranolazine, n=5","38,874±2,904 mmHg/min"
same,maximum value of RPP,"[3]; 0.75 μmol/L ouabain + 10 μmol/L ranolazine, n=8","41,079±2,097 mmHg/min"
same,positive inotropic response to ouabain,"[3]; Example 1, RAN 10 μM, ouabain 0.75-1.3 μM for 60 min",did not reduce
same,systolic pressure during Ranolazine delivery,"[3]; FIG. 2, 3.3 uM Ran pretreatment",slight drop
same,maximal inotropic effect of ouabain,"[3]; FIG. 2, heart pretreated with 3.3 uM Ran",the same as in the ouabain alone treated hearts
same,SP (systolic pressure),"[3]; FIG. 3, 5 uM Ran",transient decrease
same,maximal positive inotropic effect of ouabain,"[3]; FIG. 3, 5 uM Ran",not reduced
same,left ventricular contractile function over the duration of the experiment,"[3]; FIG. 4, heart pretreated with 10 uM Ran",stable contractile function
same,ability of ouabain to significantly increase the pos dP/dt,[3]; FIG. 6,did not affect
same,RPP increase upon infusion with ouabain,"[3]; FIG. 6, hearts pretreated with 10 uM ranolazine",reached the same value as in the absence of ranolazine
same,RPP during the wash out period,"[3]; FIG. 6, ouabain in the presence of ranolazine vs ouabain alone",improved
same,decrease of RPP (rate pressure product),"[3]; FIG. 6, pretreatment with 10 uM ranolazine, before ouabain",about 20%
same,developed pressure,"[3]; ouabain, hearts treated with 10 uM ranolazine",increased
same,LVDevP at the end of washout,[3]; ouabain + 3 μmol/L ranolazine,59.2±5.5 mmHg
same,positive inotropic effect of ouabain throughout the 60-min exposure,[3]; ouabain + 10 μmol/L ranolazine (n=8) or 1 μmol/L TTX (n=6),sustained
same,episodes of cardiac standstill and changes in LVEDP,[3]; ouabain + 10 μmol/L ranolazine or 1 μmol/L TTX,neither episodes of cardiac standstill nor changes in LVEDP were observed
same,LVDevP at the end of washout,[3]; ouabain + 5 or 10 μmol/L ranolazine or 1 μmol/L TTX,not significantly different from control
same,recovery of contractile function after drug washout,"[3]; ouabain + 5 or 10 μmol/L ranolazine or 1 μmol/L TTX, vs ouabain alone",better recovery
same,LVSP decrease,[3]; ranolazine alone 3 μmol/L,8%
same,LVSP decrease,[3]; ranolazine alone 5 μmol/L,16.7%
same,LVSP decrease,[3]; ranolazine alone 10 μmol/L,15.8%
same,increase of diastolic tension during ouabain treatment,[4]; 5 and 10 μmol/L ranolazine and 1 μmol/L TTX,attenuated
CN(c1nc2ccccc2s1)C1CCN(CCCCOc2ccc(F)cc2)CC1 [R56865],sodium and calcium overload during exposure to cardiac glycosides,cardiac tissues,reduce sodium and calcium overload
